The subject of assay [1] is Mycobacterium tuberculosis variant bovis. The experiment in a line: Antimycobacterial activity against Mycobacterium bovis BCG ATCC 35734 assessed as inhibition of bacterial growth incubated for 5 days in 7H9 standard media by broth dilution method. Format: functional. Conditions: BCG ATCC 35734, 120 h, time 5 day.
For assay [2] the test system is unchanged. The experiment in a line: Disruption of proton motive force in Mycobacterium bovis BCG ATCC 35734 assessed as loss in mitochondrial membrane potential by measuring decline in fluorescence ratio at 4XMIC90 measured after >=12 hrs by DiOC2 based fluorescence analysis. Format: functional, organism-based.
Assay [3] has the same test system. As to the kind of experiment: Antimycobacterial activity against Mycobacterium bovis BCG ATCC 35734 assessed as inhibition of bacterial growth incubated for 5 days in 7H9 medium with omission of glycerol by broth dilution method. Conditions: BCG ATCC 35734, 120 h, time 5 day. The format is functional.
The test system is the same in assay [4]. As to the kind of experiment: Myco-bactericidal activity against Mycobacterium bovis BCG ATCC 35734 assessed as inhibition of bacterial colony formation incubated for 5 days by agar plate method. The format is functional. Conditions: BCG ATCC 35734, 120 h, time 5 day, read-out: MBC99.9.
Assay [5] has the same test system. The experiment in a line: Antimycobacterial activity against Mycobacterium bovis BCG ATCC 35734 assessed as inhibition of bacterial growth incubated for 5 days in 7H9 medium with addition of 10% FBS by broth dilution method. Conditions: BCG ATCC 35734, 120 h, time 5 day. Format: functional. For orientation: In broth dilution the organism is exposed to a series of concentrations in liquid medium.

The structures appear in SMILES notation. In brackets after ≈: the same amount, converted by molar mass. Activity calls are given as the source filed them. The calls are words filed in the database; no cut-off is given here.

What is called MIC90 is an inhibitory concentration at the 90% level, which refers to growth in some studies and to a panel of isolates in others. Usually MIC50 stands for the lowest concentration that inhibits either 50% of growth or 50% of the strains tested, depending on the study.

With `O=C(NC1CCCCCCC1)c1cc2cc([N+](=O)[O-])ccc2[nH]1`, the MIC90 in assay [1] stood at 0.41 µM (≈ 0.129 µg/mL). With `O=C(NC1CCCCCCC1)c1cc2ccc(C(F)(F)F)cc2[se]1`, the MIC90 in assay [1] was determined as 1.8 µM (≈ 0.724 µg/mL).

Consider `O=C(NC1CCCCCCC1)c1cc2ccc(Cl)cc2[nH]1`, for which the MIC90 in assay [1] worked out at 0.11 µM (≈ 0.0335 µg/mL).

Regarding `COc1ccc2cc(C(=O)NC3CCCCCCC3)[nH]c2c1`, in assay [1], the MIC90 came out at 1.1 µM (≈ 0.33 µg/mL). The same measure, in the same setting: then `FC(F)(F)c1ccc2cc(CNC3CCCCCCC3)[se]c2c1`, with 2 µM (≈ 0.777 µg/mL).

With `O=C(NC1CCCCCCC1)c1cc2ccc(Br)cc2[nH]1`, in assay [1], the MIC90 was found to be 0.06 µM (≈ 0.021 µg/mL). Turning to `NC(=O)c1cc2ccccc2s1`, the MIC90 in assay [1] was > 50 µM. As for `O=C(NC1CCCCCCC1)c1cc2ccc(O)cc2[nH]1`, the MIC90 in assay [1] was 11 µM (≈ 3.15 µg/mL). The same measure, in the same setting: for `c1ccc(COc2ccc3[nH]c(CNC4CCCCCCC4)cc3c2)cc1` the value was 0.31 µM (≈ 0.112 µg/mL). Still for that read-out and setting: for `COc1ccc2cc(CNC3CCCCCCC3)[nH]c2c1` the value was 1.2 µM (≈ 0.344 µg/mL); for `O=C(NC1CCCCCC1)c1cc2ccccc2[se]1`, 2.7 µM (≈ 0.865 µg/mL). Still for that read-out and setting: for `c1ccc2[se]c(CNC3CCCCCC3)cc2c1` the value was 5 µM (≈ 1.53 µg/mL). In the case of `FC(F)(F)c1ccc2cc(CNC3CCCCCCC3)[nH]c2c1`, the MIC50 was determined as 0.04 µM (≈ 0.013 µg/mL) in assay [1], 0.04 µM (≈ 0.013 µg/mL) in assay [3] and 0.07 µM (≈ 0.0227 µg/mL) in assay [5]. Moreover, the MIC90 in assay [1] was found to be 0.08 µM (≈ 0.026 µg/mL); in assay [5] it was 0.16 µM (≈ 0.0519 µg/mL). Also, the outcome in assay [2] was Active. In addition, the MBC in assay [4] turned out to be 0.16 µM (≈ 0.0519 µg/mL). `O=C(NC1CCCCCCC1)c1cc2cc(O)ccc2[nH]1`: the MIC90 in assay [1] was found to be 48 µM (≈ 13.7 µg/mL). Same read-out and setting: for `Brc1ccc2cc(CNC3CCCCCCC3)sc2c1` the value was 2.2 µM (≈ 0.775 µg/mL); for `O=C(NC1CCCCCCC1)c1cc2ccc(Br)cc2[se]1`, 0.78 µM (≈ 0.322 µg/mL). Regarding `Clc1ccc2cc(CNC3CCCCCCC3)[nH]c2c1`, in assay [1], the MIC90 came to 0.1 µM (≈ 0.0291 µg/mL). The same measure, in the same setting: for `c1ccc2[nH]c(CNC3CCCCCCC3)cc2c1` the value was 0.75 µM (≈ 0.192 µg/mL); for `COc1ccc2[nH]c(CNC3CCCCCCC3)cc2c1`, 1.5 µM (≈ 0.43 µg/mL). Consider `O=C(NC1CCCCCCC1)c1cc2ccc(C(F)(F)F)cc2[nH]1`, for which the MIC50 in assay [1] is 0.02 µM (≈ 0.00677 µg/mL); in assay [3], 0.01 µM (≈ 0.00338 µg/mL); in assay [5], 0.02 µM (≈ 0.00677 µg/mL). Besides, the results for the MIC90 in assay [1] and in assay [5] were 0.04 µM (≈ 0.0135 µg/mL) and 0.08 µM (≈ 0.0271 µg/mL), respectively. In assay [2], the result was Active. The MBC in assay [4] is 0.08 µM (≈ 0.0271 µg/mL). Turning to `COc1ccc2[nH]c(C(=O)NC3CCCCCCC3)cc2c1`, the MIC90 in assay [1] stood at 0.65 µM (≈ 0.195 µg/mL). Still for that read-out and setting: for `Brc1ccc2cc(CNC3CCCCCCC3)[nH]c2c1` the value was 0.16 µM (≈ 0.0536 µg/mL). With `c1ccc2[se]c(CNC3CCCCCCC3)cc2c1`, in assay [1], the MIC90 is 2.1 µM (≈ 0.673 µg/mL). In addition, the result in assay [2] was Active. Take `O=C(NC1CCCCCCC1)c1cc2ccc(Br)cc2s1`: the MIC90 in assay [1] was 0.8 µM (≈ 0.293 µg/mL). Regarding `O=C(NC1CCCCCCC1)c1cc2ccccc2[se]1`, the MIC90 in assay [1] was 0.7 µM (≈ 0.234 µg/mL). For the same compound, the outcome in assay [2] was Active. On to `O=C(NC1CCCCCCC1)c1cc2cc(Cl)ccc2[nH]1`, for which, in assay [1], the MIC90 came to 0.8 µM (≈ 0.244 µg/mL).

Take `O=C(NC1CCCCC1)c1cc2ccccc2[se]1`: in assay [1], the MIC90 is > 50 µM.

Consider `Clc1ccc2[nH]c(CNC3CCCCCCC3)cc2c1`, for which, in assay [1], the MIC90 was 0.22 µM (≈ 0.064 µg/mL). Still for that read-out and setting: then `O=C(NC1CCCCCCC1)c1cc2cc(OCc3ccccc3)ccc2[nH]1`, with 0.17 µM (≈ 0.064 µg/mL).

For the compound `Brc1ccc2cc(CNC3CCCCCCC3)[se]c2c1`, the MIC90 in assay [1] was found to be 0.54 µM (≈ 0.216 µg/mL). Turning to `c1ccc2sc(CNC3CCCCCCC3)cc2c1`, the MIC90 in assay [1] is 3.4 µM (≈ 0.93 µg/mL). Also, the result in assay [2] was Active.

Regarding `O=C(NC1CCCCCC1)c1cc2ccc(C(F)(F)F)cc2[nH]1`, the MIC90 in assay [1] came to 0.21 µM (≈ 0.0681 µg/mL).

As for `O=C(NC1CCCCCCC1)c1cc2ccccc2[nH]1`, the MIC90 in assay [1] turned out to be 0.52 µM (≈ 0.141 µg/mL). The same measure, in the same setting: then `Fc1ccc2cc(CNC3CCCCCCC3)[nH]c2c1`, with 0.43 µM (≈ 0.118 µg/mL); and `Fc1ccc2[nH]c(CNC3CCCCCCC3)cc2c1`, with 0.33 µM (≈ 0.0905 µg/mL); and `O=C(NC1CCCCCCC1)c1cc2cc(Br)ccc2[nH]1`, with 1.1 µM (≈ 0.384 µg/mL). Turning to `O=[N+]([O-])c1ccc2[nH]c(CNC3CCCCCCC3)cc2c1`, in assay [1], the MIC90 is 0.69 µM (≈ 0.208 µg/mL). Regarding `c1ccc2[se]c(CNC34CC5CC(CC(C5)C3)C4)cc2c1`, the MIC90 in assay [1] worked out at 2.7 µM (≈ 0.93 µg/mL). Consider `O=C(NC1CCCCC1)c1cc2ccc(C(F)(F)F)cc2[nH]1`, for which the MIC90 in assay [1] turned out to be 1.6 µM (≈ 0.497 µg/mL). Still for that read-out and setting: for `Cc1cc(C)c2cc(C(=O)NC3CCCCCCC3)[nH]c2c1` the value was 0.04 µM (≈ 0.0119 µg/mL); for `c1ccc2sc(CNC3CCCCCC3)cc2c1`, 5 µM (≈ 1.3 µg/mL); for `c1ccc2sc(CNC34CC5CC(CC(C5)C3)C4)cc2c1`, 3.6 µM (≈ 1.07 µg/mL).

On to `O=C(NC1CCCCCC1)c1cc2ccccc2s1`, for which the MIC90 in assay [1] was 3 µM (≈ 0.82 µg/mL). Regarding `O=C(NC12CC3CC(CC(C3)C1)C2)c1cc2ccccc2s1`, the MIC90 in assay [1] was determined as 0.9 µM (≈ 0.28 µg/mL).

Regarding `c1ccc2sc(CNC3CCCCC3)cc2c1`, in assay [1], the MIC90 is > 45 µM.

On to `O=C(NC1CCCCCCC1)c1cc2ccc(C(F)(F)F)cc2s1`, for which the MIC90 in assay [1] was 0.4 µM (≈ 0.142 µg/mL). The same measure, in the same setting: for `FC(F)(F)c1ccc2cc(CNC3CCCCCCC3)sc2c1` the value was 0.78 µM (≈ 0.266 µg/mL).

On to `NNC(=O)c1ccncc1` [ISONIAZID], for which the MBC in assay [4] came to 10 µM (≈ 1.37 µg/mL). Regarding `O=C(NC1CCCCCCC1)c1cc2ccccc2s1`, in assay [1], the MIC90 was 0.5 µM (≈ 0.144 µg/mL). The outcome in assay [2] was Active. Regarding `O=C(NC12CC3CC(CC(C3)C1)C2)c1cc2ccccc2[se]1`, the MIC90 in assay [1] worked out at 1 µM (≈ 0.358 µg/mL). Regarding `O=C(NC1CCCCCCC1)c1cc2cc(F)ccc2[nH]1`, the MIC90 in assay [1] worked out at 0.61 µM (≈ 0.176 µg/mL). The same measure, in the same setting: for `Brc1ccc2[nH]c(CNC3CCCCCCC3)cc2c1` the value was 0.74 µM (≈ 0.248 µg/mL); for `Cc1cc(C)c2cc(CNC3CCCCCCC3)[nH]c2c1`, 0.25 µM (≈ 0.0711 µg/mL).

For `O=C(NC1CCCCC1)c1cc2ccccc2s1`, the MIC90 in assay [1] is > 50 µM. On to `FC(F)(F)c1ccc2cc(CNC3CCCCC3)[nH]c2c1`, for which, in assay [1], the MIC90 amounted to 1.1 µM (≈ 0.326 µg/mL). Still for that read-out and setting: then `c1ccc2[se]c(CNC3CCCCC3)cc2c1`, with > 35 µM; and `O=C(NC1CCCCCCC1)c1cc2ccc(F)cc2[nH]1`, with 0.18 µM (≈ 0.0519 µg/mL); and `O=C(NC1CCCCCCC1)c1cc2ccc(OCc3ccccc3)cc2[nH]1`, with 0.07 µM (≈ 0.0264 µg/mL).
